Assays:
Type in all cases: biochemical
[1] = target: T1, EPHB4 (Homo sapiens, UniProt P54760); experiment: Kinase inhibition assay (33P transfer), EPHB4; settings: for IC50: read-out: EPHB4-1
T1 construct: Kinases are expressed as either kinase domains or full length constructs; made in house
T1 sequence (P54760 16-987): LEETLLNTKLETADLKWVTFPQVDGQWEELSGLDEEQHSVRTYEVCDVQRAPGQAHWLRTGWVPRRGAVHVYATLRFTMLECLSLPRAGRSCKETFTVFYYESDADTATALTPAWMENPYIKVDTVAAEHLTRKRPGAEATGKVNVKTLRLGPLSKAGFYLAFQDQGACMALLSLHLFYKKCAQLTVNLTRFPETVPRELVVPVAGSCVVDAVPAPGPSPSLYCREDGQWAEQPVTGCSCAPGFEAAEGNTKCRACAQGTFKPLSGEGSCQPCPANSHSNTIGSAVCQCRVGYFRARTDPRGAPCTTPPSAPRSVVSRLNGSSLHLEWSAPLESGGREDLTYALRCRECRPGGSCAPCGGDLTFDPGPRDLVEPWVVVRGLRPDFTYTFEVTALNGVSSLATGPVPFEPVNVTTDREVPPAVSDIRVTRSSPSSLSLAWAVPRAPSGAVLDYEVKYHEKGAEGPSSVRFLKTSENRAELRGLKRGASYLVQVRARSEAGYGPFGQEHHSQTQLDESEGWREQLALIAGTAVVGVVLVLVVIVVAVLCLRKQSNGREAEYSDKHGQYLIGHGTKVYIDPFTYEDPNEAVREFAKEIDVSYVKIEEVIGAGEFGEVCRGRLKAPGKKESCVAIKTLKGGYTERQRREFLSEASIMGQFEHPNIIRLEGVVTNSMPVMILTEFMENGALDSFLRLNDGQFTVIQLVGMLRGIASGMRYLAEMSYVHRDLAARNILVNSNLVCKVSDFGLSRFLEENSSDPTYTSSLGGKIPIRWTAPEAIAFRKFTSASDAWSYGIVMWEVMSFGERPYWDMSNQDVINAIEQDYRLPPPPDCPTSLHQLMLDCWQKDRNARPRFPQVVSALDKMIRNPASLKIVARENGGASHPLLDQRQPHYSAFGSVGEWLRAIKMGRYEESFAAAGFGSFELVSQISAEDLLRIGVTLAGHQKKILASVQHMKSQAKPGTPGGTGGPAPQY

[2] = target: T2, PDGFRB (Homo sapiens, UniProt P09619); experiment: Kinase inhibition assay (33P transfer), PDGFRB; settings: read-out: PDGFRB-1
T2 construct: Kinases are expressed as either kinase domains or full length constructs; made in house

[3] = target: T3, Flt-1 (Homo sapiens, UniProt P17948); experiment: Kinase inhibition assay (33P transfer), Flt-1
T3 construct: Kinases are expressed as either kinase domains or full length constructs; made in house
Method in brief: (§1)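 Activity read as 33P incorporation from ATP into poly(Glu,Tyr) 4:1 or poly(Arg,Ser) 3:1 substrate bound to microtiter plates, measured by scintillation after acid washing. Enzymes were affinity-purified GST or polyHis fusions (kinase domain or full length) from E. coli or baculovirus; IC50 = 50% reduction in labelled phosphate.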

[4] = target: T4, c-Met (Homo sapiens, UniProt P08581); experiment: Kinase inhibition assay (33P transfer), c-Met; settings: Table 2, kinase inhibition class; for IC50: read-out: Met-1
T4 construct: Kinases are expressed as either kinase domains or full length constructs; made in house
Method in brief: as §1

[5] = target: T5, Tek (Homo sapiens, UniProt Q02763); experiment: Kinase inhibition assay (33P transfer), Tek; settings: read-out: Tek-1
T5 construct: Kinases are expressed as either kinase domains or full length constructs; made in house
Method in brief: as §1

[6] = target: T6, ErbB4 (Homo sapiens, UniProt Q15303); experiment: Kinase inhibition assay (33P transfer), ErbB4; settings: read-out: ErbB4-1
T6 construct: Kinases are expressed as either kinase domains or full length constructs; made in house

[7] = target: T7, IGFR-1 (Homo sapiens, UniProt P08069); experiment: Kinase inhibition assay (33P transfer), IGFR-1; settings: Table 2, kinase inhibition class
T7 construct: Kinases are expressed as either kinase domains or full length constructs; made in house

[8] = target: T8, Itk (Homo sapiens, UniProt Q08881); experiment: Kinase inhibition assay (33P transfer), Itk; settings: Table 3; for IC50: read-out: Itk-1
T8 construct: Kinases are expressed as either kinase domains or full length constructs; made in house
T8 sequence (Q08881 1-620): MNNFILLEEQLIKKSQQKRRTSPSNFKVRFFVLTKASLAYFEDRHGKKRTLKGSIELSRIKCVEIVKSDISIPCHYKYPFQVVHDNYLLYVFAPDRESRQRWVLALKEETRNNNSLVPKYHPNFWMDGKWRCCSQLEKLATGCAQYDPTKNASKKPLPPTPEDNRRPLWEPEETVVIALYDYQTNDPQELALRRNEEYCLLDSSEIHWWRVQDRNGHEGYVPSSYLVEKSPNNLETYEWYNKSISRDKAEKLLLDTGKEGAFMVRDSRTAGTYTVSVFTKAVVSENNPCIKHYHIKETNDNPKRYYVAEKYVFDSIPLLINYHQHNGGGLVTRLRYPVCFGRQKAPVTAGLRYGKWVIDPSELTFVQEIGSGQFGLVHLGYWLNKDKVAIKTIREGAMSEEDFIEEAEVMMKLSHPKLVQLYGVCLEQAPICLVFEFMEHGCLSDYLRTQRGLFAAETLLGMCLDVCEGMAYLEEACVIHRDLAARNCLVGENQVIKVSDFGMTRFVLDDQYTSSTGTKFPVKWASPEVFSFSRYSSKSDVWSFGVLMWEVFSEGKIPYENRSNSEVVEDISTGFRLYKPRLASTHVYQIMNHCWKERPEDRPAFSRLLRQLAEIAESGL
Method in brief: as §1

[9] = target: T9, FGFR1 (Homo sapiens, UniProt P11362); experiment: Kinase inhibition assay (33P transfer), FGFR1; settings: read-out: FGFR1-1
T9 construct: Kinases are expressed as either kinase domains or full length constructs; made in house
T9 sequence (P11362 22-822, species assumed): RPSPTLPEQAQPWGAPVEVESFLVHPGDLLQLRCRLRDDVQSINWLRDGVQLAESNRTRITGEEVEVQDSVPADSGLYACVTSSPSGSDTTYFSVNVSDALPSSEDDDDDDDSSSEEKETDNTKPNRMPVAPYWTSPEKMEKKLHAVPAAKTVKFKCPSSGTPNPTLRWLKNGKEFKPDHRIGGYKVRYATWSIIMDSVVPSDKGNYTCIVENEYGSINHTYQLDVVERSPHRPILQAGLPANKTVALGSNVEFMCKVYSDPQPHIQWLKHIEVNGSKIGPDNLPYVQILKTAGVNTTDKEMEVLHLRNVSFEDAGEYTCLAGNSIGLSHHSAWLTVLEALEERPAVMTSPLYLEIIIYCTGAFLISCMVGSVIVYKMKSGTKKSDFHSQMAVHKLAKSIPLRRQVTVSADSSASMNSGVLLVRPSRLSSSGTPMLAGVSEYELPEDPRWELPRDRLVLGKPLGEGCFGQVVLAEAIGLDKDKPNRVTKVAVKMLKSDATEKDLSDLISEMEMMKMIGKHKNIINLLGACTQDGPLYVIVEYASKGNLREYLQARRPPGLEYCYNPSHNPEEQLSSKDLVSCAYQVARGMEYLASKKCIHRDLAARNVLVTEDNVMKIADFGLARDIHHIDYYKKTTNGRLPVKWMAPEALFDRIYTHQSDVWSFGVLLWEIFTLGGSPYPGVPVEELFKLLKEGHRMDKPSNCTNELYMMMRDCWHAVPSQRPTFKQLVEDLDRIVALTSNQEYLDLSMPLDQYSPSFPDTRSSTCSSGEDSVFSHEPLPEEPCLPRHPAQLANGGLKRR

T4 sequence (P08581 25-1390): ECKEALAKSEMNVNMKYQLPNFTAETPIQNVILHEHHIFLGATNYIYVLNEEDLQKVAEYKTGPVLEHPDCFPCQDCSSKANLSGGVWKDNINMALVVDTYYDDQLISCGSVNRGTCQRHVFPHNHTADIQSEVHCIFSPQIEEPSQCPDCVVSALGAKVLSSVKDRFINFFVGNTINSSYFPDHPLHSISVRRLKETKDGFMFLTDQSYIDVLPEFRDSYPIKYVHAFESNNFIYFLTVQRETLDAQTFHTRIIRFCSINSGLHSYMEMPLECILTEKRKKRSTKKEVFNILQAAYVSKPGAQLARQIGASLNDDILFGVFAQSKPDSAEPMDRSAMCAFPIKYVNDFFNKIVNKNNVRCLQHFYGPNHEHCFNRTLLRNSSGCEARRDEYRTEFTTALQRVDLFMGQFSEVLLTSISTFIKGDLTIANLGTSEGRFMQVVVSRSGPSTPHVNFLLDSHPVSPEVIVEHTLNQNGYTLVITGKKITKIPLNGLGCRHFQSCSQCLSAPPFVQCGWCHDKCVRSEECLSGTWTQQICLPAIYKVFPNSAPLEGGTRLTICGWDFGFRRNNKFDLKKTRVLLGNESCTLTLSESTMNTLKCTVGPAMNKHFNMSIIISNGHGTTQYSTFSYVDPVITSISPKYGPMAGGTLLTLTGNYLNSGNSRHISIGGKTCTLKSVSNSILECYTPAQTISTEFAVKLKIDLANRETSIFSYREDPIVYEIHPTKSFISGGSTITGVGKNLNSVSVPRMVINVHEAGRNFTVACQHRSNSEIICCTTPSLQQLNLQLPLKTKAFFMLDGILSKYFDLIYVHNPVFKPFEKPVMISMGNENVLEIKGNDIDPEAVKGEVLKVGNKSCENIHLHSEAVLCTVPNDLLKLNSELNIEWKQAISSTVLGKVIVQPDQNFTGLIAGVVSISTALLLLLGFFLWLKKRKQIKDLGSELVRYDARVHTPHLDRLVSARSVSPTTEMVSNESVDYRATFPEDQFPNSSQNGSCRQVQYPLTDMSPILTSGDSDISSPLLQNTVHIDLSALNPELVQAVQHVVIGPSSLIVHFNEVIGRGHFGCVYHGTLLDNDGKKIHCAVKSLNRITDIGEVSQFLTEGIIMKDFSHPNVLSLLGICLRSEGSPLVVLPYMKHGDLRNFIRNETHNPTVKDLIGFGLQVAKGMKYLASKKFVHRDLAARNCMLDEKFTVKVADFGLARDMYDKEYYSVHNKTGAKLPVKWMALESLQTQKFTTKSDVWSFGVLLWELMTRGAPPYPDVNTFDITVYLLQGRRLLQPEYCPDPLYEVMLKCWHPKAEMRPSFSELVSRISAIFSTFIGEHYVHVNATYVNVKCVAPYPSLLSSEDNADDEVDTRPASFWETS
T2 sequence (P09619 33-1106, species assumed): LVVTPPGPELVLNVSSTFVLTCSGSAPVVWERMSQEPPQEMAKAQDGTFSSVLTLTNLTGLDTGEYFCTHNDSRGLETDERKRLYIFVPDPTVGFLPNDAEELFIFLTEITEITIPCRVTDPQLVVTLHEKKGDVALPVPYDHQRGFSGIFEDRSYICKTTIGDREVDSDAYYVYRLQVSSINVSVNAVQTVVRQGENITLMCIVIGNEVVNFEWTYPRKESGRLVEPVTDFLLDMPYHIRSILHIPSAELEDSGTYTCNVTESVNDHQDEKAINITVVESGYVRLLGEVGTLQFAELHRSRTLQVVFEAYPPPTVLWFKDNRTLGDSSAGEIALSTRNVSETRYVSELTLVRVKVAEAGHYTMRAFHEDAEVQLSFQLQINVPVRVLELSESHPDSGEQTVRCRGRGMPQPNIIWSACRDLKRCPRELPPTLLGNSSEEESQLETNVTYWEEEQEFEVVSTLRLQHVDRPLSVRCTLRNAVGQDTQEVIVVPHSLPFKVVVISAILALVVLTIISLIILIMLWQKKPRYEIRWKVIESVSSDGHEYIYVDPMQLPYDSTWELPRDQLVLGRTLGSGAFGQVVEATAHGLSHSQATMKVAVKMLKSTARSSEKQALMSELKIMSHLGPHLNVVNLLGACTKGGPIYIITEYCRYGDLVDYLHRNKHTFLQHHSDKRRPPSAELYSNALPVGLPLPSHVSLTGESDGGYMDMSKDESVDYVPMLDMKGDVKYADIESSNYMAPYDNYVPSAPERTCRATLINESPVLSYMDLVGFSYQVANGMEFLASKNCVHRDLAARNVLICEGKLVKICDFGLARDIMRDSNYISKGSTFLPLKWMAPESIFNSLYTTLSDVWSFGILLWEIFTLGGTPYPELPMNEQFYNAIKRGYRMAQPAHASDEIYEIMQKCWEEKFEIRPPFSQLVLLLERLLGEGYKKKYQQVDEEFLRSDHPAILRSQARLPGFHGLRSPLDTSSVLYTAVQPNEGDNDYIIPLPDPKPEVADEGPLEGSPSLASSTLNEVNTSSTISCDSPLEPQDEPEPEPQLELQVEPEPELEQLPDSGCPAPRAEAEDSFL
T5 sequence (Q02763 23-1124, species assumed): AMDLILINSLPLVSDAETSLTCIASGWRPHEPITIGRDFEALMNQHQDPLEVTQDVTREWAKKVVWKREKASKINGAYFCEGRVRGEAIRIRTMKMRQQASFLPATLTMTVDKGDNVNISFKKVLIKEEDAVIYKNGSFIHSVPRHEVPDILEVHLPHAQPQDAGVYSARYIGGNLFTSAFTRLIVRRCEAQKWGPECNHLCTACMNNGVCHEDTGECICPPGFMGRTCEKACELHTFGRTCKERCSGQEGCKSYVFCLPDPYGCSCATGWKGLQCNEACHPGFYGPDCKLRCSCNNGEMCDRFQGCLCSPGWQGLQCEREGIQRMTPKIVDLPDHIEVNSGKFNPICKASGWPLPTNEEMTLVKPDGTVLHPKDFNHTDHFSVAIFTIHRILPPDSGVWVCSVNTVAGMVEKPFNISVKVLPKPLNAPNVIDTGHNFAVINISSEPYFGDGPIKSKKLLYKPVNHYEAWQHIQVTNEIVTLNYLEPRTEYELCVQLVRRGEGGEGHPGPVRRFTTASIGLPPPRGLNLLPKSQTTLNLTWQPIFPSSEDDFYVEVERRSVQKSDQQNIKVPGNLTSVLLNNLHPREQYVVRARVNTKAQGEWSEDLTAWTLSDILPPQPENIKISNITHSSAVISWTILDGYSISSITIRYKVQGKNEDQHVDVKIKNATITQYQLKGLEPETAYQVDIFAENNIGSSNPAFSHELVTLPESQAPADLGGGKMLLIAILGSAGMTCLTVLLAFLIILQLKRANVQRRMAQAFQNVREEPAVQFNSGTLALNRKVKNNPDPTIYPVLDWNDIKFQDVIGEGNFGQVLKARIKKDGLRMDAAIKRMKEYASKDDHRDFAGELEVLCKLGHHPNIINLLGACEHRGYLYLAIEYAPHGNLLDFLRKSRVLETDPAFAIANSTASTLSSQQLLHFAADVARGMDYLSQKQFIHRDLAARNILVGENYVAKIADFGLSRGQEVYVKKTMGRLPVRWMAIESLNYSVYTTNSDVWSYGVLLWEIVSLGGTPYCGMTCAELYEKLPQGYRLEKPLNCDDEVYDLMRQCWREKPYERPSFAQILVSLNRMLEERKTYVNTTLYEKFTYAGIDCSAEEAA

Row | IC50 [1] [µM] | IC50 [2] [µM] | IC50 [3] [µM] | IC50 [4] [µM] | IC50 [5] [µM] | IC50 [6] [µM] | IC50 [7] [µM] | IC50 [8] [µM] | IC50 [9] [µM] | Structure (SMILES) | EPHB4-1 [1] | Met-1 [4] | IGFR-1 [7] | Itk-1 [8]
1 | 8.99 to 11.6 | < 1.03 | 8.99 to 11.6 | > 11.6 | > 11.6 | > 11.6 | < 1.03 | > 11.6 | > 11.6 | COc1cc(Nc2ncnc(Nc3cc(F)ccc3F)n2)cc(OC)c1OC [Compound 316] |  |  |  | 
2 | 6.33 to 9.22 | < 1.05 | < 1.05 | 9.22 to 11.9 | > 11.9 |  | > 11.9 | > 11.9 | 6.33 to 9.22 | COc1cc(Nc2ncnc(N3CCc4ccccc43)n2)cc(OC)c1OC [Compound 184] |  |  |  | 
3 | 6.87 to 10 | 1.14 to 6.87 | < 1.14 | 1.14 to 6.87 | 1.14 to 6.87 |  | < 1.14 | 1.14 to 6.87 | < 1.14 | COc1ccc(Nc2ncnc(-n3c(N)nc4ccccc43)n2)cc1O [Compound 286] |  |  |  | 
4 | > 12.3 | > 12.3 | > 12.3 | > 12.3 | > 12.3 |  | 6.55 to 9.55 | > 12.3 | > 12.3 | COc1ccc(Nc2ncnc(Nc3ccc(N(C)C)cc3)n2)cc1OC [Compound 114] |  |  |  | 
5 | > 10.1 | > 10.1 | < 0.9 | > 10.1 | 0.9 to 5.4 |  | < 0.9 | 0.9 to 5.4 | < 0.9 | COc1cc(Nc2ncnc(-n3c(N)nc4ccccc43)n2)ccc1OCCn1ccnn1 [Compound 324] |  |  |  | 
6 | > 11.5 | < 1.02 | 6.13 to 8.94 | 8.94 to 11.5 | > 11.5 |  | > 11.5 | > 11.5 | > 11.5 | COc1cc(Nc2ncnc(-n3cc(C)c4ccccc43)n2)cc(OC)c1OC [Compound 323] |  |  |  | 
7 | > 10.9 |  |  | > 10.9 |  |  | > 10.9 | > 10.9 |  | COc1cc(Nc2ncnc(Nc3cc(OC)c(OC)c(OC)c3)n2)cc(OC)n1 [Compound 253] |  |  |  | 
8 |  |  |  |  |  |  |  |  |  | COc1ccc(Nc2ncnc(Nc3cc(OC)c(OC)c(OC)c3)n2)cn1 [Compound 28] | B (B>0.4 and <2.4 ug/mL) | E (E>4.5 ug/mL) | B (B>0.4 and <2.4 ug/mL) | E (E>4.5 ug/mL)
9 | > 9.63 | 0.856 to 5.13 | < 0.856 | < 0.856 | 5.13 to 7.49 |  | < 0.856 | 0.856 to 5.13 | 0.856 to 5.13 | COCCOc1ccc(Nc2ncnc(Nc3cc(-c4ccco4)n[nH]3)n2)cc1OCCOC [Compound 328] |  |  |  | 
10 | < 1.01 | 1.01 to 6.04 | 1.01 to 6.04 | > 11.3 | > 11.3 |  | 6.04 to 8.81 | > 11.3 | > 11.3 | COc1cc(Nc2ncnc(Nc3ccc(C(=O)O)cc3)n2)cc(OC)c1OC [Compound 104] |  |  |  | 
11 | > 12.6 | > 12.6 |  | > 12.6 | > 12.6 | > 12.6 | > 12.6 | > 12.6 |  | Cc1cccc(Nc2ncnc(Nc3cccc(Br)c3)n2)c1 [Compound 109] |  |  |  | 
12 | > 13.3 | 7.09 to 10.3 | 7.09 to 10.3 | > 13.3 | > 13.3 |  | > 13.3 | > 13.3 | > 13.3 | COc1cc(Nc2ncnc(-c3ccccc3)n2)cc(OC)c1OC [Compound 970] |  |  |  | 
